Test results from patent US6919299B2, “Synergistic herbicidal compositions” (Bayer CropScience GmbH, priority 2001, dated 2005).

Experiments:
Format in all cases: in vivo
Abutilon theophrasti = experiment: Outdoor post-emergence herbicidal trial, ABUTH; conditions: outdoors
Protocol: (§1) Outdoors, crop plants were grown on plots of a size of from 5 to 10 m^2 on various soils and under various climatic conditions, and the natural presence of harmful plants and/or their seeds in the soil was utilized for the experiments. The treatment with the compositions according to the invention or the herbicides A and B applied individually was carried out after emergence of the harmful and the crop plants, in general at the 2- to 4-leaf stage. The active compounds or active compound combinations, formulated as WG, WP or EC, were applied by the post-emergence method. After 2 to 8 weeks, visual evaluation was carried out in comparison with an untreated comparative group. […] In addition, the herbicidal activities of the compositions according to the invention exceed the expected values according to Colby.
(§2) If the observed activity values of the mixtures already exceed the formal sum of the values for the trials with individual applications, they also exceed the expected value according to Colby which is calculated using the following formula (cf. S. R. Colby; in Weeds 15 (1967) pp. 20 to 22): E=A+B−(A×B/100)
(§3) The figures denote: • A, B=Activity of components A and B in percent, at a dosage of a and b gram of ai/ha, respectively. • E=Expected value in % at a dosage of a+b gram of ai/ha.

Sorghum halepense = experiment: Outdoor post-emergence herbicidal trial, SORHA; conditions: Example B.VII, outdoors
Protocol: as §1, §2, §3

Digitaria sanguinalis = experiment: Outdoor post-emergence herbicidal trial, DIGSA; conditions: Example B.VII, outdoors
Protocol: as §1, §2, §3

Portulaca oleracea = experiment: Outdoor post-emergence herbicidal trial, POROL; conditions: Example B.VI, outdoors
Protocol: as §1, §2, §3

Setaria faberi = experiment: Outdoor post-emergence herbicidal trial, SETFA; conditions: Example B.II, outdoors
Protocol: as §1, §2, §3

Matricaria spec = experiment: Outdoor post-emergence herbicidal trial, MATCH; conditions: Example B.V, outdoors
Protocol: as §1, §2, §3

Brassica napus = experiment: Outdoor post-emergence herbicidal trial, BRAPP; conditions: Example B.II, outdoors
Protocol: as §1, §2, §3

Echinocloa crus galli = experiment: Outdoor post-emergence herbicidal trial, ECHCG; conditions: outdoors
Protocol: as §1, §2, §3

Amaranthus retroflexus = experiment: Outdoor post-emergence herbicidal trial, AMARE; conditions: Example B.VI, outdoors
Protocol: as §1, §2, §3

Galium aparine = experiment: Outdoor post-emergence herbicidal trial, GALAP; conditions: Example B.I, outdoors
Protocol: as §1, §2, §3

Papaver rhoeas = experiment: Outdoor post-emergence herbicidal trial, PAPRH; conditions: Example B.I, outdoors
Protocol: as §1, §2, §3

Polygonum convolvulus = experiment: Outdoor post-emergence herbicidal trial, POLCO; conditions: Example B.V, outdoors
Protocol: as §1, §2, §3

[1] = Example B.III, B2.2 840 g ai/ha

SMILES: CS(=O)(=O)c1ccc(C(=O)C2C(=O)CCCC2=O)c(Cl)c1COCC(F)(F)F [Component A, 2-[2-chloro-3-(2,2,2-trifluoroethoxymethyl)-4-methylsulfonylbenzoyl]cyclohexane-1,3-dione]
- found (herbicidal activity) (Abutilon theophrasti; Example B.III, A 100 g ai/ha): 75%
- found (herbicidal activity) (Abutilon theophrasti; Example B.IV, A 100 g ai/ha): 75%
- found (herbicidal activity) (Sorghum halepense; A 75 g ai/ha): 50%
- found (herbicidal activity) (Digitaria sanguinalis; A 75 g ai/ha): 46%
- found (herbicidal activity) (Portulaca oleracea; A 75 g ai/ha): 50%
- found (herbicidal activity) (Setaria faberi; A 100 g ai/ha): 65%
- found (herbicidal activity) (Matricaria spec; A 38 g ai/ha): 45%
- found (herbicidal activity) (Brassica napus; A 100 g ai/ha): 68%
- found (herbicidal activity) (Echinocloa crus galli; Example B.III, A 100 g ai/ha): 98%
- found (herbicidal activity) (Echinocloa crus galli; Example B.IV, A 100 g ai/ha): 98%
- found (herbicidal activity) (Amaranthus retroflexus; A 75 g ai/ha): 90%
- found (herbicidal activity) (Galium aparine; A 75 g ai/ha): 50%
- found (herbicidal activity) (Papaver rhoeas; A 75 g ai/ha): 0%
- found (herbicidal activity) (Polygonum convolvulus; A 38 g ai/ha): 50%

SMILES: COc1cc(OC)nc(NC(=O)NS(=O)(=O)c2ncccc2C(=O)N(C)C)n1 [Component B1.9, nicosulfuron]
- found (herbicidal activity) (Sorghum halepense; B1.9 40 g ai/ha): 62%
- found (herbicidal activity) (Digitaria sanguinalis; B1.9 40 g ai/ha): 50%
- found (herbicidal activity) (Portulaca oleracea; B1.9 40 g ai/ha): 0%
- found (herbicidal activity) (Amaranthus retroflexus; B1.9 40 g ai/ha): 90%

SMILES: CCNc1nc(Cl)nc(NC(C)C)n1 [Component B2.2, atrazine]
- found (herbicidal activity) (Abutilon theophrasti; [1]): 20%
- found (herbicidal activity) (Abutilon theophrasti; Example B.IV, B2.2 840 g ai/ha): 20%
- found (herbicidal activity) (Setaria faberi; B2.2 840 g ai/ha): 5%
- found (herbicidal activity) (Brassica napus; B2.2 840 g ai/ha): 0%
- found (herbicidal activity) (Echinocloa crus galli; [1]): 0%
- found (herbicidal activity) (Echinocloa crus galli; Example B.IV, B2.2 840 g ai/ha): 0%
- found (herbicidal activity) (Galium aparine; B2.2 200 g ai/ha): 30%
- found (herbicidal activity) (Papaver rhoeas; B2.2 200 g ai/ha): 60%

SMILES: N#Cc1cc(Br)c(O)c(Br)c1 [Component B2.3, bromoxynil]
- found (herbicidal activity) (Matricaria spec; B2.3 100 g ai/ha): 55%
- found (herbicidal activity) (Polygonum convolvulus; B2.3 100 g ai/ha): 45%
